Laboratory results from PMC12445692 (2025).

Key:
[1] = test system: NHE III1 (DNA, G4) TGGGGAGGGTGGGGAGGGTGGGGAAGG; test: differential scanning calorimetry; conditions: 100 μM DNA, DNA:ligand 1:4 (400 μM BTO-28), 1.0°C/min
[2] = test system: 5'-Cy5 hTERT (DNA, G4) GGGTTAGGGTTAGGGTTAGGGTTAGGGTTAG; test: fluorescence polarization, single-site fit; conditions: K+ (20 mM potassium phosphate, 80 mM KCl); pH 7.4, room temperature, 20 nM DNA; ligand 0-2 μM
[3] = test system: MYC G4 (Myc2345_T23) (DNA, G4) TGAGGGTGGGTAGGGTGGGTAA; test: NMR solution structure; conditions: K+ (2 mM potassium phosphate, 8 mM KCl); pH 7.4, 298 K
[4] = test system: 5'-Cy5 KIT (DNA, G4) GGGAGGGAGGGCGCTGGGAGGAGGG; test: fluorescence polarization, single-site fit; conditions: K+ (20 mM potassium phosphate, 80 mM KCl); pH 7.4, room temperature, 20 nM DNA; ligand 0-2 μM
[5] = test system: Myc2345 (DNA, G4) TGAGGGTGGGTAGGGTGGGGAA; test: differential scanning calorimetry; conditions: 100 μM DNA, DNA:ligand 1:4 (400 μM BTO-28), 1.0°C/min
[6] = test system: 5'-Cy5 dsDNA (DNA, duplex) CAATCGGATCGAATTCGATCCGATTG; test: fluorescence polarization, single-site fit; conditions: K+ (20 mM potassium phosphate, 80 mM KCl); pH 7.4, room temperature, 20 nM DNA; ligand 0-2 μM
[7] = test system: MYC G4 (Myc2345_T23) (DNA, G4) TGAGGGTGGGTAGGGTGGGTAA; test: differential scanning calorimetry; conditions: 100 μM DNA, DNA:ligand 1:4 (400 μM BTO-28), 1.0°C/min
[8] = test system: 5'-Cy5 RET (DNA, G4) GGGGCGGGGCGGGGCGGGGG; test: fluorescence polarization, single-site fit; conditions: K+ (20 mM potassium phosphate, 80 mM KCl); pH 7.4, room temperature, 20 nM DNA; ligand 0-2 μM
[9] = test system: 3'-Cy5 MYC G4 (DNA, G4) TGAGGGTGGGTAGGGTGGGTAA; test: fluorescence polarization, single-site fit; conditions: K+ (20 mM potassium phosphate, 80 mM KCl); pH 7.4, room temperature, 20 nM DNA; weaker than 5' end
[10] = test system: MYC G4 (Myc2345_T23) (DNA, G4) TGAGGGTGGGTAGGGTGGGTAA; test: ESI mass spectrometry; conditions: K+ (20 mM potassium phosphate, 80 mM KCl); pH 7.4, 100 μM DNA
[11] = test system: Myc2345 (DNA, G4) TGAGGGTGGGTAGGGTGGGGAA; test: ESI mass spectrometry; conditions: K+ (20 mM potassium phosphate, 80 mM KCl); pH 7.4, 100 μM DNA
[12] = test system: Myc2345 (DNA, G4) TGAGGGTGGGTAGGGTGGGGAA; test: 1H NMR titration and 15N HSQC
[13] = test system: 5'-Cy5 KRAS (DNA, G4) AGGGCGGTGTGGGAAGAGGGAAGAGGGGGAGGCAG; test: fluorescence polarization, single-site fit; conditions: K+ (20 mM potassium phosphate, 80 mM KCl); pH 7.4, room temperature, 20 nM DNA; ligand 0-2 μM
[14] = test system: 5'-Cy5 MYC G4 (DNA, G4) TGAGGGTGGGTAGGGTGGGTAA; test: fluorescence polarization, single-site fit; conditions: K+ (20 mM potassium phosphate, 80 mM KCl); pH 7.4, room temperature, 20 nM DNA; high-affinity site; Cy5 end not given, 5' inferred
[15] = test system: dsDNA (DNA, duplex) CAATCGGATCGAATTCGATCCGATTG; test: differential scanning calorimetry; conditions: 100 μM DNA, DNA:ligand 1:4 (400 μM BTO-28), 1.0°C/min

## Cc1cc(/C=C2\Sc3ccccc3N2CCCN2CCCC2)c2ccccc2[n+]1C
[1]
  binding: yes
[2]
  KD: > 2 µM
[3]
  binding: yes
[4]
  KD: 1.246 ± 0.07791 µM
[5]
  ΔTm: 26.0 °C
[6]
  KD: > 2 µM
[7]
  ΔTm: 25.6 °C
[8]
  KD: > 2 µM
[9]
  KD: 0.0898 ± 0.00507 µM
[10]
  binding: yes
[11]
  binding: yes
[12]
  binding: yes
[13]
  KD: 0.67 ± 0.03509 µM
[14]
  KD: 0.0068 µM
[15]
  ΔTm: -4.3 °C
